In PMC6925601 (European journal of medicinal chemistry, 2019):

Key:
[1] = biological target: T1, human neutrophil elastase (HNE) (Homo sapiens, UniProt P08246); assay: HNE inhibitory assay; assay type: biochemical
T1 sequence (P08246 30-247 limits assumed): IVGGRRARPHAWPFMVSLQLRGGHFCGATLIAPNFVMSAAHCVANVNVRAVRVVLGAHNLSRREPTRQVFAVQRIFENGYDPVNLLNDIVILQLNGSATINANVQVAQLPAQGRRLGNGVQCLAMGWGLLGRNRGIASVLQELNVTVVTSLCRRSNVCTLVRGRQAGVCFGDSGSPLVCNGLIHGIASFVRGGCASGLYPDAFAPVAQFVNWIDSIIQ

[2] = biological target: T2, MKK7 (Homo sapiens, UniProt O14733); assay: KINOMEscan kinase binding assay; settings: for Kd (μM) vs MKK7: KINOMEscan, duplicate, maximum concentration 30 μM
T2 sequence (O14733 1-419): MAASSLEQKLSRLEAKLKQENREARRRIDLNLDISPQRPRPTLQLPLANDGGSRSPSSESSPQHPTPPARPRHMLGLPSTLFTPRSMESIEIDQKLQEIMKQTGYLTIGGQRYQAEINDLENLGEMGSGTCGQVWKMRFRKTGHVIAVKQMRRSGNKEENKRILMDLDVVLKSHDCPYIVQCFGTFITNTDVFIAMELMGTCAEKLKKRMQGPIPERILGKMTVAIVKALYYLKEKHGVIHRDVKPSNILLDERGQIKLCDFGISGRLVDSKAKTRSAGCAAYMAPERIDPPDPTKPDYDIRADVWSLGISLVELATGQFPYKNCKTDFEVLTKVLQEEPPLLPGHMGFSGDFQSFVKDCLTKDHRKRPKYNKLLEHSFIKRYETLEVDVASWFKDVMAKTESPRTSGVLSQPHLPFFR

[3] = tested on: nine tumor cell lines and primary PBMCs; assay: Cytotoxicity across the panel of nine tumor cell lines and PBMCs; assay type: cell-based, human; settings: 24 h; for IC50: Homo sapiens, PBMC, read-out: cytotoxic activity IC50 for most of the cell lines; for cytotoxicity toward tumor cell lines and PBMCs (in words): up to 50 μM
[4] = biological target: T3, MKK4 (Homo sapiens, UniProt P45985); assay: KINOMEscan kinase binding assay; settings: for Kd for MKK4: KINOMEscan, data not shown
T3 sequence (P45985 1-399): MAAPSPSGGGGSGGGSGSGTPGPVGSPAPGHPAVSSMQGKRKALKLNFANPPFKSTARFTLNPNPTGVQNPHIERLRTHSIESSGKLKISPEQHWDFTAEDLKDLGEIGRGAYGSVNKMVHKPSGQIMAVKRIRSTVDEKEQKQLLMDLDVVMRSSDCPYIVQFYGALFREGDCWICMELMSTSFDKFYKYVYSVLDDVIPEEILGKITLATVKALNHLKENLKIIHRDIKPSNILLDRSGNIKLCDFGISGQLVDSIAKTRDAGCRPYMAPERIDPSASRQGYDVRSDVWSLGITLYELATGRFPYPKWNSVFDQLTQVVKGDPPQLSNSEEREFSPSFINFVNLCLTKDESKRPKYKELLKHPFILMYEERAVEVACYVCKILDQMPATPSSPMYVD

[5] = tested on: A549 lung carcinoma cells; assay: Anticancer cell cytotoxicity assay; assay type: cell-based; settings: Homo sapiens, A549, 24 h, read-out: A549 IC50 (μM)
[6] = tested on: SW-982 synovial sarcoma cells; assay: Anticancer cell cytotoxicity assay; assay type: cell-based; settings: Homo sapiens, SW982, 24 h, read-out: SW-982 IC50 (μM)
[7] = tested on: MCF7 breast adenocarcinoma cells; assay: Anticancer cell cytotoxicity assay; assay type: cell-based; settings: Homo sapiens, MCF7, 24 h, read-out: MCF7 IC50 (μM)
[8] = tested on: LS174T colorectal adenocarcinoma cells; assay: Anticancer cell cytotoxicity assay; assay type: cell-based; settings: Homo sapiens, 24 h, read-out: LS174T IC50 (μM)
[9] = tested on: primary peripheral blood mononuclear cells (PBMCs); assay: Cytotoxicity assay; assay type: cell-based; settings: Homo sapiens, PBMC, 24 h, read-out: PBMCs IC50 (μM)
[10] = biological target: T4, Cdc25A (Homo sapiens, UniProt P30304); assay: CycLex Cdc25A fluorometric phosphatase inhibition assay; assay type: biochemical
T4 sequence (P30304 1-524): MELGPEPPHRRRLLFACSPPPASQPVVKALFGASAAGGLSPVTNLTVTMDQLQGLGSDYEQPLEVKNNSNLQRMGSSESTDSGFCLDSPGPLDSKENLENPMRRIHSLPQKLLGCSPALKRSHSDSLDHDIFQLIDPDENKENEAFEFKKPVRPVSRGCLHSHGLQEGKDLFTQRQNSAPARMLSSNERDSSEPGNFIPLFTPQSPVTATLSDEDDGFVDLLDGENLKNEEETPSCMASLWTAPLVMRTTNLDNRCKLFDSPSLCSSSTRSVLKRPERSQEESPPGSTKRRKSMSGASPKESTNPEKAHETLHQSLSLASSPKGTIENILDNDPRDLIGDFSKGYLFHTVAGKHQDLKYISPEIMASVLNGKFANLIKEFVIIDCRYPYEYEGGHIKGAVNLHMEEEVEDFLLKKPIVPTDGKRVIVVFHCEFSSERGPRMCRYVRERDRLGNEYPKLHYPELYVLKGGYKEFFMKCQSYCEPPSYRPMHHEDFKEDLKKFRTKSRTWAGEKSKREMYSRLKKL

[11] = biological target: T5, Cdc25B (Homo sapiens, UniProt P30305); assay: CycLex Cdc25B fluorometric phosphatase inhibition assay; assay type: biochemical
T5 sequence (P30305 1-580): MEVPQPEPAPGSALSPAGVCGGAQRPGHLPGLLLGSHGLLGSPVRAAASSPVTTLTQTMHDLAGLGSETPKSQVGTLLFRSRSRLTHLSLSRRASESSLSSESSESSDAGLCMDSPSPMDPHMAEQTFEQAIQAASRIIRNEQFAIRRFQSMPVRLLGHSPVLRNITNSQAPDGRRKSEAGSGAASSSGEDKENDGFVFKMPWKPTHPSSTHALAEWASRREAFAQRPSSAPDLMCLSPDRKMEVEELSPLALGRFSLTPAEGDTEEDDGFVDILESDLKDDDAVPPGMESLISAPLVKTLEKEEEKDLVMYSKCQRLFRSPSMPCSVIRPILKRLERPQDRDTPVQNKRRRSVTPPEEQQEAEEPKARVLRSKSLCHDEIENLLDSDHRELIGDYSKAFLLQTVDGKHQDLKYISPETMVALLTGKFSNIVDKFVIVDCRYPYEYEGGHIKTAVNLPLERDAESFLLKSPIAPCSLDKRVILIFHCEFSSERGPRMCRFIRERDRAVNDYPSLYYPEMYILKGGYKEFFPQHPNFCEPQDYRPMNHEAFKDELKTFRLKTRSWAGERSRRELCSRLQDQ

Structure (SMILES): CC(C)=CC[C@@H](O)C1=CC(=O)c2c(O)ccc(O)c2C1=O [Compound 1, Shikonin]
- IC50 [1]: > 50 µM
- Kd [2]: > 30 µM
- Kd (μM) vs MKK7 [2]: did not bind

Structure (SMILES): CC1=CC(=O)c2c(O)cccc2C1=O [Compound 2, Plumbagin, reference compound]
- IC50 [1]: > 50 µM
- IC50 [3]: < 10 µM

Structure (SMILES): O=C1C(SCCO)=C(SCCO)C(=O)c2ccccc21 [Compound 4, 2,3-bis-[(2-hydroxyethyl)thio]-1,4-naphthoquinone, reference compound]
- IC50 [1]: > 50 µM
- Kd for MKK4 [4]: No MKK4 binding affinity
- IC50 [3]: < 10 µM
- Kd (μM) vs MKK7 [2]: in the micromolar range

Structure (SMILES): CC1=C(SCCO)C(=O)c2ccccc2C1=O [Compound 5, reference compound]
- IC50 [1]: > 50 µM
- Kd [2]: > 30 µM

Structure (SMILES): O=C(O)CSC1=CC(=O)c2ccccc2C1=O [Compound 6]
- IC50 [1]: > 50 µM
- Kd [4]: 19.5 ± 0.7 µM
- cytotoxicity toward tumor cell lines and PBMCs (in words) [3]: weakly active or inactive

Structure (SMILES): O=C(O)CCSC1=CC(=O)c2ccccc2C1=O [Compound 7, 3-[(1,4-dioxonaphthalen-2-yl)sulfanyl]propanoic acid]
- IC50 [1]: > 50 µM
- Kd for MKK4 [4]: No MKK4 binding affinity
- fold more active than 6 (MKK7) ([2]; compared with compound 6): 6 fold

Structure (SMILES): CC(SC1=CC(=O)c2ccccc2C1=O)C(=O)O (stereo not shown) [Compound 8]
- Kd for MKK4 [4]: No MKK4 binding affinity

Structure (SMILES): CC1=C(SCCC(=O)O)C(=O)c2ccccc2C1=O [Compound 9, vitamin ks-II, reference compound]
- IC50 [1]: > 50 µM

Structure (SMILES): CCSC1=C(C)C(=O)c2ccccc2C1=O [Compound 10]
- IC50 [1]: > 50 µM
- IC50 [3]: < 10 µM

Structure (SMILES): COCCSC1=C(C)C(=O)c2ccccc2C1=O [Compound 11]
- IC50 [1]: > 50 µM
- IC50 [3]: < 10 µM

Structure (SMILES): CC1=C(SC(C)C)C(=O)c2ccccc2C1=O [Compound 12]
- IC50 [1]: > 50 µM
- IC50 [3]: < 10 µM

Structure (SMILES): CSC1=C(SC)C(=O)c2ccccc2C1=O [Compound 13]
- IC50 [1]: > 50 µM
- IC50 [3]: < 10 µM

Structure (SMILES): COc1ccc(OC)c2c1C(=O)C=C(SCCC(=O)O)C2=O [Compound 14, GN25]
- IC50 [5]: > 50 µM
- IC50 [1]: > 50 µM
- IC50 [6]: > 50 µM
- cytotoxicity toward tumor cell lines and PBMCs (in words) [3]: weakly toxic or nontoxic
- IC50 [7]: > 50 µM
- IC50 [8]: > 50 µM
- IC50 [9]: > 50 µM
- Kd [2]: > 30 µM
- Kd (μM) vs MKK7 [2]: inactive

Structure (SMILES): COC1=C(OC)C(=O)c2ccccc2C1=O [Compound 15]
- IC50 [1]: > 50 µM
- Kd (μM) vs MKK7 [2]: almost complete loss of binding affinity

Structure (SMILES): COC1=CC(=O)c2ccccc2C1=O [Compound 16]
- IC50 [1]: > 50 µM

Structure (SMILES): COC1=C(C)C(=O)c2ccccc2C1=O [Compound 17]
- IC50 [5]: > 50 µM
- IC50 [1]: > 50 µM
- IC50 [6]: > 50 µM
- IC50 [8]: > 50 µM
- IC50 [9]: > 50 µM

Structure (SMILES): CC1=CC(=O)c2ccccc2C1=O [Compound 18, menadione, reference compound]
- IC50 [1]: > 50 µM
- IC50 [3]: < 10 µM
- Kd [2]: > 30 µM
- Kd (μM) vs MKK7 [2]: did not bind

Structure (SMILES): O=C1C(O)=C(CN(CCCl)CCCl)C(=O)c2ccccc21 [Compound 19]
- IC50 [1]: > 50 µM

Structure (SMILES): CC(C)(C)[C@H]1CC[C@H](CC2=C(O)C(=O)c3ccccc3C2=O)CC1 [Compound 21, buparvaquone, reference compound]
- IC50 [10]: > 50 µM
- IC50 [1]: > 50 µM
- Kd [2]: > 30 µM
- Kd (μM) vs MKK7 [2]: did not bind

Structure (SMILES): O=C(O)CNC1=C(Cl)C(=O)c2ccccc2C1=O [Compound 22a, (3-Chloro-1,4-dioxo-1,4-dihydro-naphthalen-2-ylamino)-acetic acid]
- IC50 [1]: > 50 µM
- IC50 [11]: > 50 µM

Structure (SMILES): O=C(O)CCCNC1=C(Cl)C(=O)c2ccccc2C1=O [Compound 22c, 4-(3-Chloro-1,4-dioxo-1,4-dihydro-naphthalen-2-ylamino)-butyric acid]
- IC50 [1]: > 50 µM

Structure (SMILES): O=C(O)c1cccc(NC2=C(Cl)C(=O)c3ccccc3C2=O)c1 [Compound 22e, 3-(3-Chloro-1,4-dioxo-1,4-dihydro-naphthalen-2-ylamino)-benzoic acid]
- IC50 [1]: > 50 µM
- Kd for MKK4 [4]: No MKK4 binding affinity
- IC50 [3]: < 10 µM

Structure (SMILES): O=C(O)c1ccc(NC2=C(Cl)C(=O)c3ccccc3C2=O)cc1 [Compound 22f, 4-(3-Chloro-1,4-dioxo-1,4-dihydro-naphthalen-2-ylamino)-benzoic acid]
- IC50 [1]: > 50 µM
- IC50 [3]: < 10 µM

Structure (SMILES): COC(=O)c1ccc(NC2=C(Cl)C(=O)c3ccccc3C2=O)cc1 [Compound 22g, 4-(3-Chloro-1,4-dioxo-1,4-dihydro-naphthalen-2-ylamino)-benzoic acid methyl ester]
- IC50 [1]: > 50 µM

Structure (SMILES): O=C1C(Cl)=C(NCCO)C(=O)c2ccccc21 [Compound 23a, 2-Chloro-3-(2-hydroxy-ethylamino)-1,4-naphthoquinone]
- IC50 [1]: > 50 µM
- IC50 [11]: > 50 µM

Structure (SMILES): O=C1C(Cl)=C(NCCCO)C(=O)c2ccccc21 [Compound 23b, 2-Chloro-3-(3-hydroxy-propylamino)-1,4-naphthoquinone]
- IC50 [1]: > 50 µM
- IC50 [11]: > 50 µM

Structure (SMILES): O=C1C(Cl)=C(NCCCN2CCOCC2)C(=O)c2ccccc21 [Compound 24, 2-Chloro-3-(3-morpholin-4-yl-propylamino)-1,4-naphthoquinone]
- IC50 [10]: > 50 µM
- Cdc25A IC50 (μM) ([10]; recombinant Cdc25A, OMFP substrate, 25 °C): inactive
- IC50 [1]: > 50 µM
- IC50 [11]: > 50 µM
- Cdc25B IC50 (μM) ([11]; recombinant Cdc25B, OMFP substrate, 25 °C): inactive

Structure (SMILES): COC(=O)c1ccc(NC2=C(N3CCCCC3)C(=O)c3ccccc3C2=O)cc1 [Compound 25a, 4-(1,4-Dioxo-3-piperidin-1-yl-1,4-dihydro-naphthalen-2-ylamino)-benzoic acid methyl ester]
- IC50 [1]: > 50 µM
- Kd [2]: > 30 µM

Structure (SMILES): COC(=O)c1ccc(NC2=C(OC)C(=O)c3ccccc3C2=O)cc1 [Compound 25b, 4-(3-Methoxy-1,4-dioxo-1,4-dihydro-naphthalen-2-ylamino)-benzoic acid methyl ester]
- IC50 [10]: > 50 µM
- IC50 [1]: > 50 µM
- IC50 [11]: > 50 µM
